The text below walks through data of ChEMBL document CHEMBL4325834, “De Novo Molecular Design of a Novel Octapeptide That Inhibits In Vivo Melanogenesis and Has Great Transdermal Ability” (J Med Chem, 2018).

Data set [1] is described as follows: Reducing power of the compound assessed as reducing Fe3+ power at 80 uM using K3Fe(CN)6 in pH 6.6 phosphate buffer relative to control.
The subject of data set [2] is B16. In words: Downregulation of TYR protein expression in mouse B16 cells after 72 hrs by Western blot analysis. It counts as functional, cell-based.
Data set [3] deals with T1, Tyrosinase (Mus musculus) (UniProt P11344).
T1 sequence (whole entry): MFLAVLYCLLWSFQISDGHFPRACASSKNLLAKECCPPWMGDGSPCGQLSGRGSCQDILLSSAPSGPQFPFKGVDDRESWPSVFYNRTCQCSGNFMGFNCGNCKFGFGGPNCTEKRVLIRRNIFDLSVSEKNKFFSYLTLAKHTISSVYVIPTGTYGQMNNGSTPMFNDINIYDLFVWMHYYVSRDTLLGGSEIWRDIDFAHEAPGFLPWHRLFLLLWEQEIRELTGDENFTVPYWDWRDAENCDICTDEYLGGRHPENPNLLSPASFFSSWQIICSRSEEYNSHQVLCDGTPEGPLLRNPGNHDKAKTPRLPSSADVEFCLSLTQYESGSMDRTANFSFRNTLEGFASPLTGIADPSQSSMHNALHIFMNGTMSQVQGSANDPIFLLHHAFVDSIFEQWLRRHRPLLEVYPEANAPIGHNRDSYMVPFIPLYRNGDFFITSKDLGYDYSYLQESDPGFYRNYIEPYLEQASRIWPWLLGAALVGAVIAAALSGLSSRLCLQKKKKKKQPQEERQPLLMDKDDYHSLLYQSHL
The experiment in a line: Inhibition of TYR activity in mouse B16 cells 20 uM using L-dopa as substrate after 72 hrs relative to control. The class given is cell-based.

The test system of data set [4] is B16. In words: Cytotoxicity against mouse B16 cells up to 150 uM by MTT assay relative to control. The class given is cell-based.
Data set [5] can be described thus: Hemolytic activity against human erythrocytes assessed as amount of hemoglobin released from lysed cells up to 150 uM relative to control. As to conditions: read-out: Activity. The class given is ADME, cell-based, Erythrocyte.
Data set [6] can be described thus: Antioxidant activity assessed as DPPH free radical scavenging activity at 80 uM after 30 mins relative to control. It counts as functional.
In data set [7] the target is T1, Tyrosinase (Mus musculus). In words: Inhibition of TYR activity in mouse B16 cells assessed as increase in whitening at 20 uM preincubated for 72 hrs followed L-dopa substrate addition and measured after 4 hrs by fluorescence microscopy. It counts as cell-based.
For data set [8], the target named is T2, Tyrosinase (Agaricus bisporus) (UniProt O42713).
T2 sequence (whole entry): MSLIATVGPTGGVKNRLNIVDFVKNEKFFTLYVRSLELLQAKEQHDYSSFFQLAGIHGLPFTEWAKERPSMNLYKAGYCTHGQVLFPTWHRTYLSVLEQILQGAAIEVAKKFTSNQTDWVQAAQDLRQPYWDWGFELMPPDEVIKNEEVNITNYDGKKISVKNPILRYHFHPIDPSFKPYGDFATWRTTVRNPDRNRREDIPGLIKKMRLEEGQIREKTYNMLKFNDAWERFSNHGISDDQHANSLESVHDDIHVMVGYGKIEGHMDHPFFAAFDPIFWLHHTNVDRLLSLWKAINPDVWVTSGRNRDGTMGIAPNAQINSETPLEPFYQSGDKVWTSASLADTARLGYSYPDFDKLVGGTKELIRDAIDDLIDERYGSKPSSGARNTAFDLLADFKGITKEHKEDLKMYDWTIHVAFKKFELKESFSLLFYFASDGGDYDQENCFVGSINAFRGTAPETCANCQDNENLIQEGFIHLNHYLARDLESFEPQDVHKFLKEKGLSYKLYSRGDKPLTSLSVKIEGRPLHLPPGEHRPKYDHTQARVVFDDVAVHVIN
In words: Inhibition of mushroom tyrosinase using L-dopa as substrate assessed as reduction in L-dopa oxidation at IC50 by spectrophotometry.

The target of data set [9] is T1, Tyrosinase (Mus musculus). In words: Inhibition of TYR activity in mouse B16 cells assessed as melanin levels post exfoliation at 20 uM after 72 hrs by spectrophotometric analysis relative to control. It counts as cell-based. Also noted: scale not given: the % may be the effect or the level left.
A further data set has as its target T3, Tyrosinase (Agaricus bisporus, UniProt O42713).
T3 sequence (O42713 whole entry): T2 sequence (whole entry)
In words: Inhibition of mushroom tyrosinase using L-dopa as substrate assessed as reduction in dopachrome production after 20 mins by spectrophotometry.

For data set [10], the target named is T2, Tyrosinase (Agaricus bisporus). In words: Potency index, ratio of IC50 for arbutin to IC50 for test compound for inhibition of mushroom tyrosinase using L-dopa as substrate assessed as reduction in dopachrome production after 20 mins by spectrophotometry.
Data set [11] can be described thus: Antioxidant activity assessed as ABTS radical scavenging activity at 80 uM after 10 mins relative to control. It counts as functional.
In data set [12] the target is T1, Tyrosinase (Mus musculus). In words: Inhibition of TYR activity in mouse B16 cells assessed as effect on pallet after exfoliation at 20 uM preincubated for 72 hrs followed L-dopa substrate addition and measured after 4 hrs by fluorescence microscopy. It counts as cell-based.
For data set [13], the target named is T1, Tyrosinase (Mus musculus). The experiment in a line: Inhibition of TYR activity in mouse B16 cells assessed as reduction in melanin levels at 20 uM after 24 hrs by spectrophotometric analysis relative to control. The class given is cell-based.
Data set [14] has as its system B16. In words: Downregulation of MITF protein expression in mouse B16 cells after 72 hrs by Western blot analysis. It counts as functional, cell-based.
The subject of another data set is HaCaT. The experiment in a line: Cytotoxicity against human HaCaT cells up to 150 uM by MTT assay relative to control. It counts as cell-based.

The structures appear in SMILES notation. pIC50: −log10 of the molar value. The source made the active and inactive calls. No cut-off for these calls is given here. Where a SMILES comes first, the peptide text is derived from it.

As for `CC(C)[C@H](NC(=O)[C@H](CO)NC(=O)[C@H](CCCNC(=N)N)NC(=O)[C@H](CS)NC(=O)[C@@H](NC(=O)[C@H](CCCNC(=N)N)NC(=O)[C@@H](N)Cc1ccccc1)[C@@H](C)O)C(=O)N[C@@H](CS)C(=O)O` (H-FRTCRSVC-OH), the Activity worked out at 0.25 in [1]; 3% in the data set on B16 [4]; 94% in data set [6]; 63.5% in [9]; 84% in data set [11]; 2% with HaCaT. The inhibition entry (in the data set with B16 [2]; in [7]; in data set [8]; in data set [13]; in the data set with B16 [14]) was “Active” in each case. In data set [3], this compound showed an inhibition of 16%. In addition, in [5], the hemolysis came out at 3%. Also, the pIC50 on Tyrosinase is 4.14. In addition, the Ratio IC50 in data set [10] turned out to be 10. Further, the outcome in [12] was Active.
As to `OC[C@H]1O[C@@H](Oc2ccc(O)cc2)[C@H](O)[C@@H](O)[C@@H]1O` [ARBUTIN], the Activity in data set [1] was determined as 0.12; with B16 [4], 29%; in [6], 22%; in data set [9] it was 76.3%; in data set [11], 53%; with HaCaT, 31%. Besides, the inhibition entry in the data set with B16 [2] and in the data set with B16 [14] was “inactive” each time. In addition, the inhibition in data set [3] amounted to 10.4%. Further, the hemolysis in data set [5] was determined as 27%. Further, in [7], the inhibition entry was “Active”. In addition, the outcome in [12] was Active.
